For experiment [1], the system named is L-687,414-induced hyperlocomotion. The conditions noted are these: mice; D. Alberati et al 2010; cited from earlier work.
Experiment [2] has the same test system. The experiment in a line: Reversal of L-687,414-induced hyperlocomotion in mice. The class given is in vivo. Conditions: for ED50: Mus musculus, po, 1 h, read-out: ED50 of compound alone, L-687,414-induced hyperlocomotion; for reversal of hyperlocomotion induced by L-687,414 (in words): single agents, mice, L-687,414 50 mg/kg. How it is done: RG1678, [4-(3-Fluoro-5-trifluoromethyl-pyridin-2-yl)-piperazin-1-yl]-[5-methanesulfonyl-2-((S)-2,2,2 trifluoro-1-methyl-ethoxy)-phenyl]-methanone (WO05/014563) and L-687,414, ((3R,4R)-3-amino-1-hydroxy-4-methylpyrrolidin-2-one (Tetrahedron Letters, Vol. 49, issue 42, 2008, 6079-6080) and olanzapine were synthesized according to known methods by the Medicinal Chemistry Department of F. Hoffmann-La Roche, and risperidone was purchased from Sigma. All drugs were dissolved in H2O/0.3% Tween 80 and administered orally in a volume of 10 ml/kg body weight.
Male NMRI mice (20-30 g) supplied from Iffa Credo, Lyon, France, were housed in a vivarium at controlled temperature (20-22° C.) and a 12 hr light/dark cycle (lights on 6:00 a.m. Animals were allowed ad libitum access to food and water. The experimental procedures used in the present study received prior approval from the City of Basel Cantonal Animal Protection Committee based on adherence to federal and local regulations. Behavioral experiments were conducted during the hours of 8:00 a.m. and 2:00 p.m.
A computerized Digiscan 16 Animal Activity Monitoring System (Omnitech Electronics, Columbus, Ohio) was used to quantify locomotor activity. Data were obtained simultaneously from eight Digiscan activity chambers placed in a soundproof room with a 12 hr light/dark cycle. Experiments were performed during the light phase between 06:30 a.m. and 5:00 p.m. Each activity monitoring chamber consisted of a Plexiglas box (41×41×28 cm; W×L×H) with sawdust bedding on the floor surrounded by invisible horizontal and vertical infrared sensor beams. The chambers were divided by a Plexiglas cross providing each mouse with 20×20 cm of moving space. Two animals per box were monitored simultaneously. Chambers were connected to a Digiscan Analyzer linked to a computer that constantly collected the beam status information. The activity detector operates by counting the number of times the beams change from uninterrupted to interrupted status or vice-versa. Records of photocell beam interruptions for individual animals were taken every five minutes over the duration of the experimental session. Mice were first treated with RG1678 at different doses or at a fixed low dose administered p.o. and, 30 minutes later, treated with an antipsychotic at different doses or at a fixed low dose administered p.o. Fifteen minutes after the antipsychotic treatment mice received a s.c. injection of 50 mg/kg of L-687,414. Mice were then transferred from their home cages to the recording chambers for a 15-min habituation phase allowing free exploration of the new environment. Horizontal activity was then recorded for a 60-min time period. The horizontal activity value for each group of animals at a given dose of RG1678 alone or in combination with an antipsychotic (y1) was expressed as % of L-687,414-induced hyperlocomotion and calculated according to the equation (((y1−vehicle horizontal activity)/(L-687,414 horizontal activity−vehicle horizontal activity))×100). For dose-response experiments, the horizontal activity value for each group of animal at a given dose of GlyT1 inhibitor or antipsychotics (y1) was expressed as a percent of L-687,414-induced hyperlocomotion and calculated according to the equation (((y1−vehicle horizontal activity)/(L-687,414 horizontal activity−vehicle horizontal activity))×100). ID50 values, defined as doses of each compound producing 50% inhibition of L-687,414-induced hyperlocomotion, were calculated by linear regression analysis of the dose-response data using an Excel-based computer curve-fitting program.

The subject of experiment [3] is schizophrenic patients. Conditions: added to conventional therapy; cited from earlier work.

The text below walks through data of patent US20120035156A1, “COMBINATION OF GLYT1 COMPOUND WITH ANTIPSYCHOTICS” (priority 2010, published 2012).

Where “and” joins values, the source holds several entries; their conditions need not be identical. Equal values may be shown once. Read-outs that look alike come from different tables or passages of the source.

By ED50 is commonly meant the dose at which the effect has come halfway, by size or by number of responders.

With `O=C(CCCN1CCC(O)(c2ccc(Cl)cc2)CC1)c1ccc(F)cc1` [haloperidol], the “prevention of hyperlocomotion induced by L-687,414 (assay validation)” value (“prevention of hyperlocomotion induced” for short) in experiment [1] is given as “effective in preventing this behavioral effect in a dose-dependant manner”.
Turning to `O=C1CCc2ccc(OCCCCN3CCN(c4cccc(Cl)c4Cl)CC3)cc2N1` [aripiprazole, 7-{4-[4-(2,3-dichlorophenyl)piperazin-1-yl]butoxy}-3,4-dihydroquinolin-2(1H)-one], the “prevention of hyperlocomotion induced” value in experiment [1] was “effective in preventing this behavioral effect in a dose-dependant manner”.
Consider `Cc1cc2c(s1)Nc1ccccc1N=C2N1CCN(C)CC1` [olanzapine, 2-methyl-4-(4-methyl-1-piperazinyl)-10H-thieno[2,3-b][1.5]benzodiazepine], for which the median effective dose (ED50) in experiment [2] amounted to 0.06 mg/kg. The “reversal of hyperlocomotion induced by olanzapine alone” value in experiment [2] (olanzapine 0.05 mg/kg p.o., male NMRI mice, L-687,414 50 mg/kg s.c.) is given as 34%.
Take `NCC(=O)O` [glycine]: the “effect on positive, negative and cognitive symptoms” value (“effect on positive” for short) in experiment [3] is “improved positive, negative and cognitive symptoms”. Moreover, the “prevention of hyperlocomotion induced” value in experiment [1] is “dose-dependently blocked hyperlocomotion”.
For `CNCC(=O)O` [sarcosine], the “effect on positive” value in experiment [3] was “improved positive, negative and cognitive symptoms”.
For the compound `C[C@H](Oc1ccc(S(C)(=O)=O)cc1C(=O)N1CCN(c2ncc(C(F)(F)F)cc2F)CC1)C(F)(F)F` [RG1678], the median effective dose (ED50) in experiment [2] (male NMRI mice, p.o., L-687,414 50 mg/kg s.c., horizontal activity recorded 1 hour) came out at 0.76 mg/kg. Also, the “reversal of hyperlocomotion induced by RG1678 alone” value in experiment [2] (RG1678 0.6 mg/kg p.o., male NMRI mice, L-687,414 50 mg/kg s.c.) was 19% and 21%. In addition, the “reversal of hyperlocomotion induced by L-687,414 (in words)” value in experiment [2] is given as “dose-dependently reversed hyperlocomotion”.
Consider `N[C@H](CO)C(=O)O` [D-serine], for which the “effect on positive” value in experiment [3] is “improved positive, negative and cognitive symptoms”.
Regarding `Cc1nc2n(c(=O)c1CCN1CCC(c3noc4cc(F)ccc34)CC1)CCCC2` [risperidone, 3-[2-[4-(6-fluoro-1,2-benzisoxazol-3-yl)piperidino]ethyl]-2.methyl-6,7,8,9-tetrahydro-4H-pyrido-[1.2-a]pyrimidin-4-one], in experiment [2], the ED50 is 0.023 mg/kg and the “reversal of hyperlocomotion induced by L-687,414 (in words)” value is “dose-dependently reversed hyperlocomotion”. For the same compound, in experiment [2] (risperidone 0.005 mg/kg p.o., male NMRI mice, L-687,414 50 mg/kg s.c.), the “reversal of hyperlocomotion induced by risperidone alone” value came to 15%. Besides, the “prevention of hyperlocomotion induced” value in experiment [1] was “effective in preventing this behavioral effect in a dose-dependant manner”.
